Experimental data published in patent US9603896B2, “Peptide compounds and methods of production and use thereof” (priority 2012, dated 2017).
Read-outs that look alike come from different tables or passages of the source. Square brackets hold non-standard residues; d marks the D form. Peptide text beside a SMILES is read from it. AEEA = NCCOCCOCC(=O)O

Assays:
[1] = system: E. coli ATCC® strain 25922™; format: cell-based, Escherichia coli; set-up: Log reduction of E. coli: dose or concentration left out as unconfirmed; Effects of Peptide Compounds on Escherichia coli ATCC ® 25922 ™: unit not given here; conditions: for Log reduction of E. coli: 25, starting inoculum 1×10^6 CFU/ml, 60 to 180 minute incubation; for Effects of Peptide Compounds on Escherichia coli ATCC ® 25922 ™: Table 6, 5 × 10^3 CFU/ml unless italicized = 1 × 10^5 CFU/ml
Description: The three peptide compounds BCC01-5RMP (SEQ ID NO:21), BCC02-5RMP (SEQ ID NO:22), and BCC03-5RMP (SEQ ID NO:23) were assayed for in vitro bactericidal activity against Pseudomonas aeruginosa, Escherichia coli, Salmonella typhimurium, and Acinetobacter baumannii. […] The CFU remaining at the end of 60 to 180 minute incubation was determined, and the data plotted as a log reduction in CFU/ml.
Tables 4-6 show the results of various peptides and peptide compounds against P. aeruginosa and E. coli strains. Tables 4 and 5 show the results of an investigation of the effects of peptide or peptide compounds BCC03-5RMP (SEQ ID NO:23), BCC03-MP (SEQ ID NO:24) and BCC03-5R (SEQ ID NO:20) against P. aeruginosa ATCC® strain 27853™ and E. coli ATCC® strain 25922™ (American Type Culture Collection, Manassas, Va.). […] Table 6 compares the activity of several other compounds, including the “5R” versions of BCC01, i.e., SEQ ID NO:18 (which comprises SEQ ID NO:1 with five additional arginines), the “5R” version of BCC02 (i.e., SEQ ID NO:19, which comprises SEQ ID NO:2 with five additional arginines), and BCC03-5RMP (SEQ ID NO:23), and BCC03-MP (SEQ ID NO:24, i.e., without the five additional R residues). The data generally indicate the superiority of BCC03-5RMP (SEQ ID NO:23) against E. coli, and the superiority of the 5R or 5RMP versions of the peptide over the “AEEA only” peptide against P. aeruginosa.

[2] = system: Pseudomonas clinical isolate B64; assay: BIOSCREEN C™ growth assay, antibiotic and peptide combinations; format: cell-based, Pseudomonas aeruginosa
Description: Cefotaxime (Cefo) and peptide combinations included a constant amount of Cefotaxime (2.81 μg/ml) with suboptimal amounts of peptide (0, 0.34, 1.01, and 3.04 μg/ml).
The peptide and antibiotics were set up in the wells of the microtiter plate at starting ratios of MIC equivalents of antibiotic:peptide at 3:1, 1:1, and 1:3. They were serially diluted to concentrations well below suboptimal/sublethal levels of the antibiotic and peptide. The organism was added (1×10^5 CFU/well), the BIOSCREEN C™ assay (Growth Systems USA, Piscataway, N.J.) was performed, and data was collected over 24 hours.

[3] = system: P. aeruginosa (ATCC® 27853™); assay: Pseudomonas keratitis model in the mouse eye; format: in vivo; conditions: C57/BL mice, topical, concentrations between 0.25 and 0.75 mg/ml
Description: A circular wound was created on the mouse cornea by removing the epithelium and infected with 10^5 colony forming units (CFU) of P. aeruginosa (ATCC® 27853™ (American Type Culture Collection, Manassas, Va.)). Infected wounds were treated with saline (0.9% sodium chloride, vehicle control) or saline containing indicated concentrations of peptide every 15 minutes for 2 hours, then every 30 minutes for 3 hours on the first day. Infected wounds were treated twice on the second day and once on the third day. Mice were killed at 48 hours post-infection, and CFU/eye were quantified. The means were plotted and are representative of 5 to 9 mice per group. Mann Whitney test was performed for each group as compared to the saline control group. *P=0.014.
A circular wound (2 mm) was created on the mouse cornea by removing the epithelium and infecting the wound with 10^5 CFU of P. aeruginosa (ATCC® 27853™ (American Type Culture Collection, Manassas, Va.)). Infected wounds were treated with saline or saline containing indicated concentrations of peptide every 15 minutes for 2 hours, then every 30 minutes for 3 hours on the first day. Infected wounds were treated twice on the second day and once on the third day. Mice were killed at 48 hours post-infection, and the colony forming units per eye (CFU/eye) were quantified. The means are plotted and are representative of 5 to 9 mice per group. Mann Whitney test was performed for each group as compared to the saline control group.
For FIGS. 15-17, in vivo bactericidal activity of the peptides was also investigated using the standard Pseudomonas keratitis model in the mouse eye (FIGS. 15-17). Peptides 120-146QR-5RMP (SEQ ID NO:32), 120-146WH (SEQ ID NO:31), and 120-146WR (SEQ ID NO: 30) were applied topically at doses of 2, 5, 10, and 20 mg/ml to the wounded cornea that had been infected with 10^5 CFU of Pseudomonas aeruginosa. The efficacies of the peptides were compared to treatment with the vehicle control. Mice were euthanized at 48 hours post infection, and the CFU/eye were quantified.

[4] = system: TNF-α release from LPS-stimulated RAW264.7 cells; assay: LPS neutralization: TNF-α release from LPS-stimulated RAW264.7 cells; format: cell-based, mouse; conditions: Pseudomonas LPS
Description: (§1) The well-characterized response of RAW264.7 macrophage cells was used to produce tumor necrosis-factor-alpha (TNF-α) in response to LPS to determine whether the peptides could dampen the release of this cytokine. […] Importantly, pre-treatment (3 hours prior to LPS addition) as well as post-treatment of the RAW264.7 cells (3 hours post LPS addition) with peptide dampened the cytokine release. […] The finding that the novel peptides bind and neutralize the effect of Pseudomonas LPS is of critical importance since this ensures that the novel therapeutic peptide compounds described herein will not only kill the bacteria, but will also neutralize the LPS endotoxin released by the bacteria which plays such an important role in the rapid progression of sepsis.
(§2) BCC01-5RMP (SEQ ID NO:21), BCC02-5RMP (SEQ ID NO:22), and BCC03-5RMP (SEQ ID NO:23) were tested for their ability to bind lipopolysaccharide (LPS) using the limulus amebocyte lysate method (LAL). […] There was no statistical difference in their ability to bind LPS using the LAL technique. The ability of the peptides to neutralize LPS was assessed by determining their ability to attenuate the release of tumor necrosis factor-alpha (TNF-α) from LPS-stimulated RAW264.7 cells (a mouse macrophage cell line). […] No significant differences were observed between the three peptides to neutralize LPS as measured by cytokine release.

[5] = system: Pseudomonas aeruginosa ATCC® 27853™; format: cell-based; set-up: Log reduction of Pseudomonas: dose or concentration left out as unconfirmed; conditions: for Log reduction of Pseudomonas: starting inoculum 1×10^6 CFU/ml, 60 to 180 minute incubation; for Effects of Peptide Compounds on Pseudomonas aeruginosa ATCC ® 27853 ™: Table 6, 5 × 10^3 CFU/ml unless italicized = 1 × 10^5 CFU/ml
[6] = LPS binding, Limulus Amebocyte Lysate (LAL) assay; set-up: species or system Pseudomonas
Description: as §1, §2

CC[C@H](C)[C@H](NC(=O)[C@H](CC(C)C)NC(=O)[C@H](C)NC(=O)CNC(=O)CNC(=O)[C@H](CO)NC(=O)[C@H](Cc1ccccc1)NC(=O)[C@H](Cc1c[nH]cn1)NC(=O)[C@H](CCCNC(=N)N)NC(=O)CNC(=O)[C@H](CCC(N)=O)NC(=O)[C@H](CC(N)=O)NC(=O)[C@H](CCCNC(=N)N)NC(=O)[C@H](CCCNC(=N)N)NC(=O)[C@H](CCCNC(=N)N)NC(=O)[C@H](CCCNC(=N)N)NC(=O)COCCOCCNC(=O)COCCOCCN)C(=O)N[C@@H](Cc1c[nH]cn1)C(=O)N[C@@H](C)C(=O)N[C@@H](CCCNC(=N)N)C(=O)N[C@@H](Cc1ccccc1)C(=O)N[C@H](C(=O)N[C@@H](CCSC)C(=O)N[C@H](C(=O)N[C@@H](C)C(=O)N[C@@H](C)C(=O)N[C@@H](CO)C(=O)N[C@@H](CS)C(=O)N[C@@H](Cc1ccccc1)C(=O)N[C@@H](CCC(N)=O)C(=O)N[C@@H](CCCNC(=N)N)C(=O)O)[C@@H](C)O)C(C)C [BCC02-5RMP] (H-[AEEA][AEEA]RRRRNQGRHFSGGALIHARFVMTAASCFQR-OH)
Log reduction of E. coli [1]: 4
sensitivity of the bacterium to Cefotaxime on addition of peptide ([2]; 3.04 μg/ml of peptide plus Cefotaxime 2.81 μg/ml, P=0.0143): now sensitive
effect of peptide on the killing effect of Cefotaxime ([2]; 0.34 and 1.0 μg/ml of peptide plus Cefotaxime 2.81 μg/ml): no statistical effect
bacteria in the eye (CFU/eye) at 48 hours post-infection [3]: effectively killed all bacteria and cured the infection
neutralization of LPS: release of TNF-α [4]: attenuate the release of TNF-α
Log reduction of Pseudomonas [5]: 4
binding of Pseudomonas LPS [6]: bound Pseudomonas LPS

CC[C@H](C)[C@H](NC(=O)[C@H](CC(C)C)NC(=O)[C@H](C)NC(=O)CNC(=O)CNC(=O)[C@H](CS)NC(=O)[C@H](Cc1ccccc1)NC(=O)[C@H](Cc1c[nH]cn1)NC(=O)[C@H](CCCNC(=N)N)NC(=O)CNC(=O)[C@H](CCC(N)=O)NC(=O)[C@H](CC(N)=O)NC(=O)[C@H](CCCNC(=N)N)NC(=O)[C@H](CCCNC(=N)N)NC(=O)[C@H](CCCNC(=N)N)NC(=O)[C@H](CCCNC(=N)N)NC(=O)COCCOCCNC(=O)COCCOCCN)C(=O)N[C@@H](Cc1c[nH]cn1)C(=O)N[C@@H](C)C(=O)N[C@@H](CCCNC(=N)N)C(=O)N[C@@H](Cc1ccccc1)C(=O)N[C@H](C(=O)N[C@@H](CCSC)C(=O)N[C@H](C(=O)N[C@@H](C)C(=O)N[C@@H](C)C(=O)N[C@@H](CO)C(=O)N[C@@H](CO)C(=O)N[C@@H](Cc1ccccc1)C(=O)N[C@@H](CCC(N)=O)C(=O)N[C@@H](CCCNC(=N)N)C(=O)O)[C@@H](C)O)C(C)C [BCC03-5RMP] (H-[AEEA][AEEA]RRRRNQGRHFCGGALIHARFVMTAASSFQR-OH; N-terminus assumed)
Effects of Peptide Compounds on Escherichia coli ATCC ® 25922 ™ ([1]; 0.78 μg/ml): 12.3
Effects of Peptide Compounds on Escherichia coli ATCC ® 25922 ™ ([1]; 1.56 μg/ml): 23.0
Effects of Peptide Compounds on Escherichia coli ATCC ® 25922 ™ ([1]; 3.125 μg/ml): 32.8
Effects of Peptide Compounds on Escherichia coli ATCC ® 25922 ™ ([1]; 6.25 μg/ml): 78.7
Effects of Peptide Compounds on Escherichia coli ATCC ® 25922 ™ ([1]; 12.5 μg/ml): 99.3
Effects of Peptide Compounds on Escherichia coli ATCC ® 25922 ™ ([1]; 25 μg/ml): 99.7
Effects of Peptide Compounds on Escherichia coli ATCC ® 25922 ™ ([1]; 50 μg/ml): 99.9
Effects of Peptide Compounds on Escherichia coli ATCC ® 25922 ™ ([1]; 100 μg/ml): 99.9
Effects of Peptide Compounds on Escherichia coli ATCC ® 25922 ™ ([1]; 200 μg/ml): 99.9
neutralization of LPS: release of TNF-α [4]: attenuate the release of TNF-α
Effects of Peptide Compounds on Pseudomonas aeruginosa ATCC ® 27853 ™ ([5]; 0.78 μg/ml): 87.4
Effects of Peptide Compounds on Pseudomonas aeruginosa ATCC ® 27853 ™ ([5]; 1.56 μg/ml): 96.6
Effects of Peptide Compounds on Pseudomonas aeruginosa ATCC ® 27853 ™ ([5]; 3.125 μg/ml): 98.4
Effects of Peptide Compounds on Pseudomonas aeruginosa ATCC ® 27853 ™ ([5]; 6.25 μg/ml): 99.8
Effects of Peptide Compounds on Pseudomonas aeruginosa ATCC ® 27853 ™ ([5]; 12.5 μg/ml): 99.9
Effects of Peptide Compounds on Pseudomonas aeruginosa ATCC ® 27853 ™ ([5]; 25 μg/ml): 100.0
Effects of Peptide Compounds on Pseudomonas aeruginosa ATCC ® 27853 ™ ([5]; 50 μg/ml): 100.0
Effects of Peptide Compounds on Pseudomonas aeruginosa ATCC ® 27853 ™ ([5]; 100 μg/ml): 100.0
Effects of Peptide Compounds on Pseudomonas aeruginosa ATCC ® 27853 ™ ([5]; 200 μg/ml): 100.0
binding of Pseudomonas LPS [6]: bound Pseudomonas LPS

CC[C@H](C)[C@H](NC(=O)[C@H](CC(C)C)NC(=O)[C@H](C)NC(=O)CNC(=O)CNC(=O)[C@H](CS)NC(=O)[C@H](Cc1ccccc1)NC(=O)[C@H](Cc1c[nH]cn1)NC(=O)[C@H](CCCNC(=N)N)NC(=O)CNC(=O)[C@H](CCC(N)=O)NC(=O)[C@H](CC(N)=O)NC(=O)[C@H](CCCNC(=N)N)NC(=O)[C@H](CCCNC(=N)N)NC(=O)[C@H](CCCNC(=N)N)NC(=O)[C@H](CCCNC(=N)N)NC(=O)COCCOCCNC(=O)COCCOCCN)C(=O)N[C@@H](Cc1c[nH]cn1)C(=O)N[C@@H](C)C(=O)N[C@@H](CCCNC(=N)N)C(=O)N[C@@H](Cc1ccccc1)C(=O)N[C@H](C(=O)N[C@@H](CCSC)C(=O)N[C@H](C(=O)N[C@@H](C)C(=O)N[C@@H](C)C(=O)N[C@@H](CO)C(=O)N[C@@H](CS)C(=O)N[C@@H](Cc1ccccc1)C(=O)N[C@@H](CCC(N)=O)C(=O)N[C@@H](CCCNC(=N)N)C(=O)O)[C@@H](C)O)C(C)C [BCC01-5RMP] (H-[AEEA][AEEA]RRRRNQGRHFCGGALIHARFVMTAASCFQR-OH)
Log reduction of E. coli [1]: 3
neutralization of LPS: release of TNF-α [4]: attenuate the release of TNF-α
Log reduction of Pseudomonas [5]: 5
binding of Pseudomonas LPS [6]: bound Pseudomonas LPS
